Values quoted from earlier work, collected in patent US6103723A, “Inhibitors of farnesyl-protein transferase” (Merck & Co., Inc., priority 1998, dated 2000).

Test system: farnesyl-protein transferase
Settings: via HMG-CoA reductase inhibition

Structure (SMILES): CC[C@H](C)C(=O)O[C@H]1CCC=C2C=C[C@H](C)[C@H](CC[C@@H]3C[C@@H](O)CC(=O)O3)[C@H]21 [compactin]
- Indirect inhibition of farnesyl-protein transferase in vivo: Indirect inhibition of farnesyl-protein transferase in vivo has been demonstrated

Structure (SMILES): CC[C@H](C)C(=O)O[C@H]1C[C@@H](C)C=C2C=C[C@H](C)[C@H](CC[C@@H]3C[C@@H](O)CC(=O)O3)[C@H]21 [lovastatin]
- Indirect inhibition of farnesyl-protein transferase in vivo: Indirect inhibition of farnesyl-protein transferase in vivo has been demonstrated
